Source: US7678913B2, “Ureas as factor Xa inhibitors” (Portola Pharmaceuticals, Inc., priority 2004, dated 2010)

Biological target: T1, human plasma protein factor Xa (Homo sapiens, UniProt P00742)
T1 construct: measure proteolytic activity of the enzyme (factor Xa); purchased Haematologic Technologies (Essex Junction, Vt.); host or cells: human plasma
Test: Factor Xa IC50 determination (cleavage of chromogenic substrate S-2765)
Type: biochemical
Details: fXa 1 nM, S-2765 100 μM, Tris buffered saline pH 7.4, room temperature
Outline: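 Human plasma factor Xa (1 nM) preincubated 5 min at room temperature with inhibitor (0.01 nM–10 μM final) in Tris-buffered saline pH 7.4 with CaCl2, BSA and 5% DMSO. S-2765 added at 100 μM; pNA release at 405 nm over 2 min; initial velocities fitted to four-parameter equation for IC50, duplicates.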

T1 sequence (P00742 235-488 limits assumed): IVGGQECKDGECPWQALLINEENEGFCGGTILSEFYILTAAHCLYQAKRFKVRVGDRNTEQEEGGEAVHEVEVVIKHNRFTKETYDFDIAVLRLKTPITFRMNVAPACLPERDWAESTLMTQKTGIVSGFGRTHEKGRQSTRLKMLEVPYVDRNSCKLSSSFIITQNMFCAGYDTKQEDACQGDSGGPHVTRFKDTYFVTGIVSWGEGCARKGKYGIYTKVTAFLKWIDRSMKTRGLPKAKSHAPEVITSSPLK
T1 sequence (P00742 41-179 partner limits assumed): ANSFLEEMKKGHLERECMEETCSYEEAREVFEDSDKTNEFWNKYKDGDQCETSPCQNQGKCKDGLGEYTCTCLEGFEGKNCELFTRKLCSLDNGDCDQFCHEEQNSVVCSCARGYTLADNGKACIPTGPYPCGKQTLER

Structure (SMILES)	IC50
O=C(Nc1ccc(Cl)cc1)NC(C(=O)Nc1ccc(-c2cccc[n+]2[O-])cc1)c1ccccc1OC(F)(F)F (centres unmarked) [Example 121, N-[4-(N-oxo-pyridin-2-yl)phenyl]-2-(2-trifluoromethoxyphenyl)-2-(4-chlorophenylaminocarbonylamino)-acetamide]	≤ 100 nM
O=C(Nc1ccc(Cl)cc1)NC(C(=O)Nc1ccc(-c2cccc[n+]2[O-])cc1)c1ccccc1Oc1ccccc1 (centres unmarked) [Example 125, N-[4-(N-oxo-pyridin-2-yl)phenyl]-2-(2-phenoxyphenyl)-2-(4-chlorophenylaminocarbonylamino)-acetamide]	≤ 100 nM
CSc1ccccc1C(NC(=O)Nc1ccc(Cl)cc1)C(=O)Nc1ccc(-c2cccc[n+]2[O-])cc1 (centres unmarked) [Example 126, N-[4-(N-oxo-pyridin-2-yl)phenyl]-2-(2-methylthiophenyl)-2-(4-chlorophenylaminocarbonylamino)-acetamide]	≤ 100 nM
CN1CCC(N2CCN(C(=O)C(NC(=O)Nc3ccc(Cl)cc3)c3ccccc3F)CC2)CC1 (centres unmarked) [Example 127]	≤ 100 nM
CN1CCC(N2CCN(C(=O)C(NC(=O)Nc3ccc(Cl)cc3)c3ccccc3)CC2)CC1 (centres unmarked) [Example 128]	≤ 100 nM
C#CCC(NC(=O)Nc1ccc(Cl)cc1)C(=O)Nc1ccc(C2=NCCN2C)cc1 (centres unmarked) [Example 129, N-[4-(1-methyl-4,5-dihydro-1H-imidazol-2-yl)phenyl]-2-propargyl-2-(4-chlorophenylaminocarbonylamino)-acetamide]	≤ 100 nM
CC#CCC(NC(=O)Nc1ccc(Cl)cc1)C(=O)Nc1ccc(C2=NCCN2C)cc1 (centres unmarked) [Example 130, N-[4-(1-methyl-4,5-dihydro-1H-imidazol-2-yl)phenyl]-2-(but-2-yn-1-yl)-2-(4-chlorophenylaminocarbonylamino)-acetamide]	≤ 100 nM
CC#CCC(NC(=O)Nc1ccc(Cl)cc1)C(=O)Nc1ccc(-c2cccc[n+]2[O-])cc1 (centres unmarked) [Example 131, N-[4-(N-oxo-pyridin-2-yl)phenyl]-2-(but-2-yn-1-yl)-2-(4-chlorophenylaminocarbonylamino)-acetamide]	≤ 100 nM
C=CCC(NC(=O)Nc1ccc(Cl)cc1)C(=O)Nc1ccc(C2=NCCN2C)cc1 (centres unmarked) [Example 132, N-[4-(1-methyl-4,5-dihydro-1H-imidazol-2-yl)phenyl]-2-allyl-2-(4-chlorophenylaminocarbonylamino)-acetamide]	≤ 100 nM
C=CCC(NC(=O)Nc1ccc(Cl)cc1)C(=O)Nc1ccc(-c2cccc[n+]2[O-])cc1 (centres unmarked) [Example 133, N-[4-(N-oxo-pyridin-2-yl)phenyl]-2-allyl-2-(4-chlorophenylaminocarbonylamino)-acetamide]	≤ 100 nM
CN(C)C(=N)c1ccc(N2C(=O)C(NC(=O)Nc3ccc(Cl)cc3)Cc3ccccc32)cc1 (centres unmarked) [Example 134, 1-[4-(dimethylaminoimino)phenyl]-3-(4-chlorophenylaminocarbonylamino)-3,4-dihydroquinolin-2-one]	100 to 500 nM
CN1CCN=C1c1ccc(N2C(=O)C(NC(=O)Nc3ccc(Cl)cc3)Cc3ccccc32)cc1 (centres unmarked) [Example 136, 1-[4-(1-methyl-4,5-dihyrdo-1H-imidazol-2-yl)phenyl]-3-(4-chlorophenylaminocarbonylamino)-3,4-dihydroquinolin-2-one]	≤ 100 nM
O=C(Nc1ccc(Cl)cc1)N[C@H](C(=O)Nc1ccc(-n2ccccc2=O)cc1)c1ccccc1 [Example 137, (2S) N-[4-(2-pyridon-1-yl)phenyl]-2-phenyl-2-(4-chlorophenylaminocarbonylamino)-acetamide]	≤ 100 nM
O=C(Nc1ccc(Cl)s1)N[C@H](C(=O)Nc1ccc(-n2ccccc2=O)cc1)c1ccccc1 [Example 139, (2S) N-[4-(2-pyridon-1-yl)phenyl]-2-phenyl-2-(2-chlorothiophen-5-ylaminocarbonylamino)-acetamide]	≤ 100 nM
O=C(Nc1ccc(Cl)cc1)N[C@@H](C(=O)N1CCC(N2CCCCC2=O)CC1)c1ccccc1 [Example 141, (2R) 4-(2-piperidinon-1-yl)piperidin-1-yl-2-phenyl-2-(4-chlorophenylaminocarbonylamino)-acetamide]	≤ 100 nM
O=C(Nc1ccc(Cl)cc1)N[C@@H](C(=O)N1CCC(N2CCOCC2=O)CC1)c1ccccc1 [Example 142, (2R) 4-(3-morpholinon-4-yl)piperidin-1-yl-2-phenyl-2-(4-chlorophenylaminocarbonylamino)-acetamide]	≤ 100 nM
O=C(Nc1ccc(Cl)cc1)NC(C(=O)N1CCC(N2CCOCC2=O)CC1)c1ccccc1F (centres unmarked) [Example 144, 4-(3-morpholinon-4-yl)piperidin-1-yl-2-(2-fluorophenyl)-2-(4-chlorophenylaminocarbonylamino)-acetamide]	≤ 100 nM
O=C(Nc1ccc(Cl)cc1)NC(C(=O)N1CCC(N2CCOCC2=O)CC1)c1ccccc1Cl (centres unmarked) [Example 145, 4-(3-morpholinon-4-yl)piperidin-1-yl-2-(2-chlorophenyl)-2-(4-chlorophenylaminocarbonylamino)-acetamide]	≤ 100 nM
O=C(Nc1ccc(Cl)cc1)NC(C(=O)N1CCC(N2CCOCC2=O)CC1)c1ccccc1Br (centres unmarked) [Example 146, 4-(3-morpholinon-4-yl)piperidin-1-yl-2-(2-bromophenyl)-2-(4-chlorophenylaminocarbonylamino)-acetamide]	100 to 500 nM
COc1ccccc1C(NC(=O)Nc1ccc(Cl)cc1)C(=O)N1CCC(N2CCOCC2=O)CC1 (centres unmarked) [Example 148, 4-(3-morpholinon-4-yl)piperidin-1-yl-2-(2-methoxyphenyl)-2-(4-chlorophenylaminocarbonylamino)-acetamide]	≤ 100 nM
COc1ccccc1C(NC(=O)Nc1ccc(Cl)cc1)C(=O)N1CCC(N2CCCCC2=O)CC1 (centres unmarked) [Example 150, 4-(2-piperidinon-1-yl)piperidin-1-yl-2-(2-methoxyphenyl)-2-(4-chlorophenylaminocarbonylamino)-acetamide]	≤ 100 nM
COc1ccccc1C(NC(=O)Nc1ccc(Cl)cc1)C(=O)N1CCN(C2CCCN(C)CC2)CC1 (centres unmarked) [Example 153, 4-(1-methylhomopiperidin-4-yl)piperazin-1-yl-2-(2-methoxyphenyl)-2-(4-chlorophenylaminocarbonylamino)-acetamide]	≤ 100 nM
CN1CCCN(C2CCN(C(=O)[C@H](NC(=O)Nc3ccc(Cl)cc3)c3ccccc3)CC2)CC1 [Example 154, (2R) 4-(4-methylhomopiperazin-1-yl)piperidin-1-yl-2-phenyl-2-(4-chlorophenylaminocarbonylamino)-acetamide]	100 to 500 nM

The next lines start with the values.

IC50	Structure (SMILES)
≤ 100 nM	CN1CCN=C1c1ccc(NC(=O)C(NC(=O)Nc2ccc(Cl)cc2)c2ccccc2SC(F)(F)F)cc1 (centres unmarked) [Example 122, N-[4-(1-methyl-4,5-dihydro-1H-imidazol-2-yl)phenyl]-2-(2-trifluoromethylthiophenyl)-2-(4-chlorophenylaminocarbonylamino)-acetamide]
≤ 100 nM	O=C(Nc1ccc(Cl)cc1)NC(C(=O)Nc1ccc(-c2cccc[n+]2[O-])cc1)c1ccccc1SC(F)(F)F (centres unmarked) [Example 123, N-[4-(N-oxo-pyridin-2-yl)phenyl]-2-(2-trifluoromethylthiophenyl)-2-(4-chlorophenylaminocarbonylamino)-acetamide]
≤ 100 nM	CN1CCN=C1c1ccc(NC(=O)C(NC(=O)Nc2ccc(Cl)cc2)c2ccccc2Oc2ccccc2)cc1 (centres unmarked) [Example 124, N-[4-(1-methyl-4,5-dihydro-1H-imidazol-2-yl)phenyl]-2-(2-phenoxyphenyl)-2-(4-chlorophenylaminocarbonylamino)-acetamide]
≥ 500 nM	N=C(c1ccc(N2C(=O)C(NC(=O)Nc3ccc(Cl)cc3)Cc3ccccc32)cc1)N1CCCC1 (centres unmarked) [Example 135]
≤ 100 nM	O=C(Nc1ccc(Cl)cc1)N[C@@H](C(=O)Nc1ccc(-n2ccccc2=O)cc1)c1ccccc1 [Example 138, (2R) N-[4-(2-pyridon-1-yl)phenyl]-2-phenyl-2-(4-chlorophenylaminocarbonylamino)-acetamide]
≤ 100 nM	O=C(Nc1ccc(Cl)cc1)N[C@@H](C(=O)Nc1ccc(-n2ccccc2=O)cc1F)c1ccccc1 [Example 140, (2R) N-[4-(2-pyridon-1-yl)-2-fluorophenyl]-2-phenyl-2-(4-chlorophenylaminocarbonylamino)-acetamide]
≤ 100 nM	O=C(Nc1ccc(Cl)cc1)N[C@@H](C(=O)N1CCC(n2ccccc2=O)CC1)c1ccccc1 [Example 143, (2R) 4-(2-pyridon-1-yl)piperidin-1-yl-2-phenyl-2-(4-chlorophenylaminocarbonylamino)-acetamide]
100 to 500 nM	Cc1ccccc1C(NC(=O)Nc1ccc(Cl)cc1)C(=O)N1CCC(N2CCOCC2=O)CC1 (centres unmarked) [Example 147, 4-(3-morpholinon-4-yl)piperidin-1-yl-2-(2-methylphenyl)-2-(4-chlorophenylaminocarbonylamino)-acetamide]
≤ 100 nM	O=C(Nc1ccc(Cl)cc1)NC(C(=O)N1CCC(N2CCCCC2=O)CC1)c1ccccc1F (centres unmarked) [Example 149, 4-(2-piperidinon-1-yl)piperidin-1-yl-2-(2-fluorophenyl)-2-(4-chlorophenylaminocarbonylamino)-acetamide]
≥ 500 nM	COc1ccccc1C(NC(=O)Nc1ccc(Cl)cc1)C(=O)N1CCC(N2CCN(C)CC2=O)CC1 (centres unmarked) [Example 151, 4-(4-methyl-2-piperazinon-1-yl)piperidin-1-yl-2-(2-methoxyphenyl)-2-(4-chlorophenylaminocarbonylamino)-acetamide]
≤ 100 nM	COc1ccccc1C(NC(=O)Nc1ccc(Cl)cc1)C(=O)N1CCN(C2CCCNCC2)CC1 (centres unmarked) [Example 152, 4-(homopiperidin-4-yl)piperazin-1-yl-2-(2-methoxyphenyl)-2-(4-chlorophenylaminocarbonylamino)-acetamide]
≤ 100 nM	CN1CCC(C2CCN(C(=O)[C@H](NC(=O)Nc3ccc(Cl)cc3)c3ccccc3)CC2)CC1 [Example 155, (2R) 4-(1-methylpiperidin-4-yl)piperidin-1-yl-2-phenyl-2-(4-chlorophenylaminocarbonylamino)-acetamide]
